Patent US20250255874A1, “Methods for Treating Immune Thrombocytopenia By Administering (R)-2-[3-[4-Amino-3-(2-Fluoro-4-Phenoxy-Phenyl)Pyrazolo[3,4-D]Pyrimidin-1-YL]Piperidine-1-Carbonyl]-4-Methyl-4-[4-(Oxetan-3-YL)Piperazin-1-YL]Pent-2-Enentrile” (Principia Biopharma Inc., priority 2022, published 2025)

Tested on: patients with relapsed/refractory immune thrombocytopenia
Test: Phase 1/2 study (NCT03395210) Part A, safety;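 further: adverse events graded by NCI CTCAE version 4.0, with worsening of pre-existing conditions counted as adverse events, analysed in the Safety Population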
Details: Safety Population; N = 60

CC(C)(C=C(C#N)C(=O)N1CCC[C@@H](n2nc(-c3ccc(Oc4ccccc4)cc3F)c3c(N)ncnc32)C1)N1CCN(C2COC2)CC1 [rilzabrutinib, (R)-2-[3-[4-amino-3-(2-fluoro-4-phenoxy-phenyl)pyrazolo[3,4-d]pyrimidin-1-yl]piperidine-1-carbonyl]-4-methyl-4-[4-(oxetan-3-yl)piperazin-1-yl]pent-2-enenitrile]
16 (27) number of patients (percent): Diarrhea, Treatment-Related TEAEs, Grade 1
10 (17) number of patients (percent): Fatigue, TEAEs Due to Any Cause, Grade 1
2 (3) number of patients (percent): Costochondritis, TEAEs Due to Any Cause, Any grade | Costochondritis, TEAEs Due to Any Cause, Grade 1 | Cough, TEAEs Due to Any Cause, Any grade | Cough, TEAEs Due to Any Cause, Grade 1 | Dizziness, TEAEs Due to Any Cause, Any grade | Dizziness, TEAEs Due to Any Cause, Grade 1 | Dyspnea exertional, TEAEs Due to Any Cause, Any grade | Dyspnea exertional, TEAEs Due to Any Cause, Grade 1 | Dyspnea, TEAEs Due to Any Cause, Any grade | Dyspnea, TEAEs Due to Any Cause, Grade 1 | Edema, TEAEs Due to Any Cause, Any grade | Edema, TEAEs Due to Any Cause, Grade 1 | Epistaxis, TEAEs Due to Any Cause, Any grade | Epistaxis, TEAEs Due to Any Cause, Grade 1
1 (2) number of patients (percent): Back pain, TEAEs Due to Any Cause, Grade 2 | Back pain, Treatment-Related TEAEs, Any grade | Back pain, Treatment-Related TEAEs, Grade 2 | Contusion, TEAEs Due to Any Cause, Grade 3/4 | Contusion, Treatment-Related TEAEs, Any grade | Contusion, Treatment-Related TEAEs, Grade 1 | Decreased appetite, TEAEs Due to Any Cause, Any grade | Decreased appetite, TEAEs Due to Any Cause, Grade 1 | Decreased appetite, Treatment-Related TEAEs, Any grade | Decreased appetite, Treatment-Related TEAEs, Grade 1 | Defecation urgency, TEAEs Due to Any Cause, Any grade | Defecation urgency, TEAEs Due to Any Cause, Grade 2 | Defecation urgency, Treatment-Related TEAEs, Any grade | Defecation urgency, Treatment-Related TEAEs, Grade 2 | Dyspepsia, TEAEs Due to Any Cause, Grade 2 | Dyspepsia, Treatment-Related TEAEs, Any grade | Dyspepsia, Treatment-Related TEAEs, Grade 1 | Edema, Treatment-Related TEAEs, Any grade | Edema, Treatment-Related TEAEs, Grade 1 | Epigastric discomfort, TEAEs Due to Any Cause, Any grade | Epigastric discomfort, TEAEs Due to Any Cause, Grade 2 | Epigastric discomfort, Treatment-Related TEAEs, Any grade | Epigastric discomfort, Treatment-Related TEAEs, Grade 2 | Erysipelas, TEAEs Due to Any Cause, Any grade | Erysipelas, TEAEs Due to Any Cause, Grade 2 | Erysipelas, Treatment-Related TEAEs, Any grade | Erysipelas, Treatment-Related TEAEs, Grade 2
19 (32) number of patients (percent): Diarrhea, TEAEs Due to Any Cause, Grade 1 | Diarrhea, Treatment-Related TEAEs, Any grade
12 (20) number of patients (percent): Fatigue, TEAEs Due to Any Cause, Any grade
11 (18) number of patients (percent): Contusion, TEAEs Due to Any Cause, Any grade
7 (12) number of patients (percent): Contusion, TEAEs Due to Any Cause, Grade 1
3 (5) number of patients (percent): Contusion, TEAEs Due to Any Cause, Grade 2 | Diarrhea, TEAEs Due to Any Cause, Grade 2 | Diarrhea, Treatment-Related TEAEs, Grade 2 | Dyspepsia, TEAEs Due to Any Cause, Grade 1
22 (37) number of patients (percent): Diarrhea, TEAEs Due to Any Cause, Any grade
4 (7) number of patients (percent): Dyspepsia, TEAEs Due to Any Cause, Any grade
5 (8) number of patients (percent): Conjunctival hemorrhage, TEAEs Due to Any Cause, Any grade | Conjunctival hemorrhage, TEAEs Due to Any Cause, Grade 1
